Results from patent US9149038B2, “4-amino-6-(heterocyclic)picolinates and 6-amino-2-(heterocyclic)pyrimidine-4-carboxylates and their use as herbicides” (Dow AgroSciences LLC, priority 2013, dated 2015).
Like-named read-outs stand apart in the source and are kept apart here.

How the values were obtained:
[1] = test system: Key Grass and Sedge Weeds as well as Grass Crops; assay: Post-Emergent Test II: postemergent herbicidal activity, visual rating after 14 d (Table 8); type: in vivo; settings: post-emergence, 336 h; for pest or weed control at 35 g/ha: 35 g ai/ha; for pest or weed control at 70 g/ha: 70 g ai/ha; for pest or weed control at 140 g/ha: 140 g ai/ha; for pest or weed control at 280 g/ha: 280 g ai/ha
Procedure, shortened: (§1)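 Greenhouse plants at first or second true leaf stage sprayed with compound in acetone/DMSO-based spray solution with crop oil concentrate and Triton X-155 at 187 L/ha, tested at highest rate and ½× to 1/16× dilutions; solvent blank controls. Injury rated visually 0–100% versus untreated plants after 14 d.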

[2] = test system: Key Broadleaf Weed and Crop Species; assay: Post-Emergent Test II: postemergent herbicidal activity, visual rating after 14 d (Table 7); type: in vivo; settings: post-emergence, 336 h; for pest or weed control at 35 g/ha: 35 g ai/ha; for pest or weed control at 70 g/ha: 70 g ai/ha; for pest or weed control at 140 g/ha: 140 g ai/ha; for pest or weed control at 280 g/ha: 280 g ai/ha
Procedure, shortened: as §1

[3] = barnyardgrass (Echinochloa crus-galli), read-out: Visual Growth Reduction (%) 14 Days After Application, ECHCG
[4] = giant foxtail (Setaria faberi), read-out: Visual Growth Reduction (%) 14 Days After Application, SETFA
[5] = maize, corn (Zea mays), read-out: Visual Growth Reduction (%) 14 Days After Application, ZEAMX
[6] = rice (Oryza sativa), read-out: Visual Growth Reduction (%) 14 Days After Application, ORYSA
[7] = wheat, spring (Triticum aestivum), read-out: Visual Growth Reduction (%) 14 Days After Application, TRZAS
[8] = yellow nutsedge (Cyperus esculentus), read-out: Visual Growth Reduction (%) 14 Days After Application, CYPES
[9] = ABUTH: velvetleaf (Abutilon theophrasti), read-out: Visual Growth Reduction (%) 14 Days After Application ABUTH
[10] = AMARE: redroot pigweed (Amaranthus retroflexus), read-out: Visual Growth Reduction (%) 14 Days After Application AMARE
[11] = BRSNN: oilseed rape, canola (Brassica napus), read-out: Visual Growth Reduction (%) 14 Days After Application BRSNN
[12] = CHEAL: lambsquarters (Chenopodium album), read-out: Visual Growth Reduction (%) 14 Days After Application CHEAL
[13] = EPHHL: wild poinsettia (Euphorbia heterophylla), read-out: Visual Growth Reduction (%) 14 Days After Application EPHHL
[14] = HELAN: sunflower (Helianthus annuus), read-out: Visual Growth Reduction (%) 14 Days After Application HELAN

Work on `COC(=O)c1nc(-c2ccc3c(c2F)OC(F)(F)C3(F)F)cc(N)c1Cl` [Compound 106] yielded a pest or weed control at 35 g/ha [1, 3] of 0 to 29%, a pest or weed control at 70 g/ha [1, 3] of 0 to 29% and a pest or weed control at 140 g/ha [1, 3] of 0 to 29%. It also gave a pest or weed control at 280 g/ha [1, 3] of 0 to 29%, a pest or weed control at 35 g/ha [1, 4] of 0 to 29% and a pest or weed control at 70 g/ha [1, 4] of 0 to 29%. It also gave a pest or weed control at 140 g/ha [1, 4] of 0 to 29%, a pest or weed control at 280 g/ha [1, 4] of 0 to 29% and a pest or weed control at 35 g/ha [1, 5] of 0 to 29%. It also gave a pest or weed control at 70 g/ha [1, 5] of 0 to 29%, a pest or weed control at 140 g/ha [1, 5] of 0 to 29% and a pest or weed control at 280 g/ha [1, 5] of 0 to 29%. For the same compound, the pest or weed control at 35 g/ha [1, 6] was 0 to 29%, the pest or weed control at 70 g/ha [1, 6] was 0 to 29% and the pest or weed control at 140 g/ha [1, 6] was 0 to 29%. For the same compound, the pest or weed control at 280 g/ha [1, 6] was 0 to 29%, the pest or weed control at 35 g/ha [1, 7] was 0 to 29% and the pest or weed control at 70 g/ha [1, 7] was 0 to 29%. The pest or weed control at 140 g/ha [1, 7] was 0 to 29%, the pest or weed control at 280 g/ha [1, 7] was 0 to 29% and the pest or weed control at 35 g/ha [1, 8] was 0 to 29%. It also gave a pest or weed control at 70 g/ha [1, 8] of 0 to 29%, a pest or weed control at 140 g/ha [1, 8] of 0 to 29% and a pest or weed control at 280 g/ha [1, 8] of 0 to 29%. The pest or weed control at 35 g/ha [2, 9] was 45 to 59%, the pest or weed control at 70 g/ha [2, 9] was 75 to 84% and the pest or weed control at 140 g/ha [2, 9] was 75 to 84%. For the same compound, the pest or weed control at 280 g/ha [2, 9] was 85 to 94%, the pest or weed control at 35 g/ha [2, 10] was 30 to 44% and the pest or weed control at 70 g/ha [2, 10] was 30 to 44%. The pest or weed control at 140 g/ha [2, 10] was 60 to 74%, the pest or weed control at 280 g/ha [2, 10] was 75 to 84% and the pest or weed control at 35 g/ha [2, 11] was 0 to 29%. For the same compound, the pest or weed control at 70 g/ha [2, 11] was 0 to 29%, the pest or weed control at 140 g/ha [2, 11] was 0 to 29% and the pest or weed control at 280 g/ha [2, 11] was 0 to 29%. For the same compound, the pest or weed control at 35 g/ha [2, 12] was 0 to 29%, the pest or weed control at 70 g/ha [2, 12] was 0 to 29% and the pest or weed control at 140 g/ha [2, 12] was 45 to 59%. The pest or weed control at 280 g/ha [2, 12] was 75 to 84%, the pest or weed control at 35 g/ha [2, 13] was 45 to 59% and the pest or weed control at 70 g/ha [2, 13] was 60 to 74%. The pest or weed control at 140 g/ha [2, 13] was 75 to 84%, the pest or weed control at 280 g/ha [2, 13] was 75 to 84% and the pest or weed control at 35 g/ha [2, 14] was 0 to 29%. It also gave a pest or weed control at 70 g/ha [2, 14] of 0 to 29%, a pest or weed control at 140 g/ha [2, 14] of 0 to 29% and a pest or weed control at 280 g/ha [2, 14] of 30 to 44%.
